Measurements published in patent publication US6525063B2, “Antitumour 1,5-diazaanthraquinones” (Universidad Complutense de Madrid, priority 1998, dated 2003).

How the values were obtained:
[1] = test system: HT-29 (ATCC HTB-38) cells; experiment: in vitro cytotoxic assay, HT-29 cells; format: cell-based; settings: 72 h; HT-29 human colon carcinoma monolayer; three days of incubation; Crystal Violet staining; approximate IC50
Experimental: (§1) Cells were maintained in logarithmic phase of growth in Eagle's Minimum Essential Medium, with Earle's Balanced Salts, with 2.0 mM L-glutamine, with non-essential amino acids, without sodium bicarbonate (EMEM/neaa); supplemented with 10% Fetal Calf Serum (FCS), 10^−2 M sodium bicarbonate and 0,1 g/l penicillin-G+streptomycin sulfate.
(§2) A screening procedure has been carried out to determine and compare the antitumour activity of these compounds, using an adapted form of the method described by Raymond J. Bergeron, Paul F. Cavanaugh Jr., Steven J. Kline, Robert G. Hughes, Jr., Gary T. Elliot and Carl W. Porter. Antineoplastic and antiherpetic activity of spermidine catecholamide iron chelators. Biochem. Bioph. Res. Comm. 1984, 121, 848-854. The antitumour cells employed were P388 (ATCC CCL-46) (suspension culture of a lymphoid neoplasm from DBA/2 mouse), A549 (ATCC CCL-185) (monolayer culture of a human lung carcinoma), HT-29 (ATCC HTB-38) (monolayer culture of a human colon carcinoma) and SK-MEL-28 (ATCC HTB-72) (monolayer culture of a human melanoma).
(§3) A549 (ATCC CCL-185), HT-29 (ATCC HTB-38) and SK-MEL-28 (ATCC HTB-72) cells were seeded into 16 mm wells at 2×10^4 cells per well in 1 ml aliquots of MEM 10FCS containing the indicated concentration of drug. A separate set of cultures without drug was seeded as control growth to ensure that cells remained in exponential phase of growth. All determinations were carried out in duplicate. After three days of incubation at 37° C., 10% CO2 in a 98% humid atmosphere, the wells were stained with 0.1% Crystal Violet. An approximately IC50 was determined by comparing the growth in wells with drug to the growth in wells control.
(§4) The results of the in vitro cytotoxic assays for these compounds (4a), (4b), (4c), (4d), (11a), (12a), (13a), (13b), and (14a) with the cellular lines P388 (ATCC CCL-46), A549 (ATCC CCL-185), HT-29 (ATCC HTB-38) and SK-MEL-28 (ATCC HTB-72) are shown in the following Table.

[2] = test system: SK-MEL-28 (ATCC HTB-72) cells; experiment: in vitro cytotoxic assay, SK-MEL-28 cells; format: cell-based; settings: 72 h; SK-MEL-28 human melanoma monolayer; three days of incubation; Crystal Violet staining; approximate IC50
Experimental: as §1, §2, §3, §4

P388 (ATCC CCL-46) cells = experiment: in vitro cytotoxic assay, P388 cells; format: cell-based; settings: 72 h; P388 lymphoid neoplasm from DBA/2 mouse, suspension culture; three days of incubation; approximate IC50 by growth vs control
Experimental: as §1, §2
P388 (ATCC CCL-46) cells were seeded into 16 mm wells at 1×10^4 cells per well in 1 ml aliquots of MEM 5FCS containing the indicated concentration of drug. A separate set of cultures without drug was seeded as control growth to ensure that cells remained in exponential phase of growth. All determinations were carried out in duplicate.
as §4

[3] = test system: A549 (ATCC CCL-185) cells; experiment: in vitro cytotoxic assay, A549 cells; format: cell-based; settings: 72 h; A549 human lung carcinoma monolayer; three days of incubation; Crystal Violet staining; approximate IC50
Experimental: as §1, §2, §3, §4

Row | Compound | melting point | IC50 [1] | IC50 [2] | IC50 (P388 (ATCC CCL-46) cells) | IC50 [3]
1 | CC1C=CN(N(C)C)C2=C1C(=O)c1nccc(Cl)c1C2=O (stereo not shown) [(12a), 8-Chloro-1-dimethylamino-4-methyl-1,4-dihydro-1,5-diazaanthraquinone] | – | 1.65 µM | 0.33 µM | 3.29 µM | 0.33 µM
2 | Cc1ccnc2c1C(=O)c1nccc(C)c1C2=O [(4c), 4,8-Dimethyl-1,5-diazaanthraquinone] | 253 to 254 °C | 1.05 µM | 1.05 µM | 4.2 µM | 0.5 µM
3 | O=C1c2nccc(-c3ccccc3[N+](=O)[O-])c2C(=O)c2nccc(Cl)c21 [(13b), 4-Chloro-8-(o-nitrophenyl)-1,5-diazaanthraquinone] | – | 0.27 µM | 0.07 µM | 0.27 µM | 0.03 µM
4 | CCc1cnc2c(c1)C(=O)c1ncc(CC)cc1C2=O [(4a), 3,7-Diethyl-1,5-diazaanthraquinone] | 218 to 220 °C | 0.19 µM | 0.05 µM | 0.45 µM | 0.05 µM
5 | Cc1cnc2c(c1)C(=O)c1ncc(C)cc1C2=O [(4b), 3,7-Dimethyl-1,5-diazaanthraquinone] | > 300 °C | 0.51 µM | 0.11 µM | 7.35 µM | 0.05 µM

More lines, main results first:

Row | melting point | Compound | IC50 [1] | IC50 [2] | IC50 (P388 (ATCC CCL-46) cells) | IC50 [3]
6 | 180 to 182 °C | CCc1c(C)cnc2c1C(=O)c1ncc(C)c(CC)c1C2=O [(4d), 4,8-Diethyl-3,7-dimethyl-1,5-diazaanthraquinone] | 3.4 µM | 3.4 µM | 3.4 µM | 3.4 µM
7 | 97 to 100 °C | Cc1ccnc2c1C(=O)c1nccc(N(C)C)c1C2=O [(14a), 4-Dimethylamino-8-methyl-1,5-diazaanthraquinone] | 0.94 µM | 0.37 µM | 9.36 µM | 0.37 µM
8 | > 300 °C | Cc1ccnc2c1C(=O)c1nccc(Cl)c1C2=O [(13a), 4-Chloro-8-methyl-1,5-diazaanthraquinone] | 1.93 µM | 0.19 µM | 3.87 µM | 0.19 µM
9 | 208 to 210 °C | Cc1cnc2c(c1)C(=O)c1nccc(Cl)c1C2=O [(11a), 8-Chloro-3-methyl-1,5-diazaanthraquinone] | 0.04 µM | 0.03 µM | 0.15 µM | 0.03 µM
